Entries after “also recorded” stand apart in the source; their conditions may differ.
Assays:
Assay type in all cases: in vivo, mouse
[1] = test system: Lmna^H222P/H222P mice; experiment: Deaths during the 4-week treatment protocol; settings: 4-week treatment from 16 weeks; PD98059 n=22, SP600125 n=29; DMSO 6 of n=28
Description: (§1) We assigned male Lmna^H222P/H222P mice 16 weeks of age to 3 different treatment arms (placebo DMSO, n=28; MEK1/2 inhibitor PD98059, n=22; JNK inhibitor SP600125, n=29) and examined parameters of cardiac structure and function at 20 weeks of age, after 4 weeks treatment. […] Lmna^H222P/H222P mice also have depressed cardiac contractility, with fractional shortening (FS) decreased by 20%-40% compared to Lmna^+/+ mice (13,15). Myocardial fibrosis occurs in Lmna^H222P/H222P mice at 16 weeks of age (16). At 20 weeks, LVEDD and LVESD increase further in Lmna^H222P/H222P mice and cardiac contractility also progressively deteriorates (16). During the 4-week treatment protocol, 6 mice in the DMSO group, 3 in the PD98059 group and 3 in the SP600125 group died prior to reaching 20 weeks of age for evaluation.

[2] = test system: ERK1/2; experiment: Immunoblot of phosphorylated ERK1/2 versus total ERK1/2 in hearts of treated mice
Experimental: (§2) Hearts were excised from mice at 16-weeks of age and were homogenized in RIPA extraction buffer (Cell Signalling) containing protease inhibitors (25 […]). Protein samples were subjected to SDS-PAGE, transferred to nitrocellulose membranes and blotted with primary antibodies against ERK1/2 (Santa-Cruz), phosphorylated ERK1/2 (Cell Signaling), JNK (Santa-Cruz), natriuretic peptide precursor A (Santa-Cruz), phosphorylated JNK (Cell Signaling), and Gapdh (Ambion). Secondary antibodies were HRP-conjugated (Amersham). Recognized proteins were visualized by enhanced chemiluminescence (ECL, Amersham). The signal generated using an antibody against Gapdh was used as internal controls to normalize the amounts of protein between immunoblots.
We assessed the efficacy of the chemical entities in inhibiting their targets in the heart by immunoblot using anti-total ERK1/2 (Santa Cruz) and anti-pERK1/2 (Cell Signaling) antibodies.
(§3) Proteins were loaded on 10% SDS gels and electrotransferred on a […] pore size nitrocellulose membrane (Invitrogen). We used antibodies directed against phosphorylated ERK1/2 (Cell Signaling, 1:1,000), total ERK1/2 (Santa Cruz, 1:2,000), phosphorylated JNK (Cell Signaling, 1:1,000) and total JNK (Santa Cruz, 1:200). The secondary antibodies were coupled to horseradish-peroxydase (Amersham). Recognized proteins were visualized by enhanced chemiluminescence (SuperSignal® West Pico chemiluminescent substrate, Thermo Scientific).

[3] = test system: Lmna^H222P/H222P mice; experiment: Pilot study: echocardiography at 24 weeks of age, treatment from 19 to 24 weeks; settings: 3 mg/kg/day from 19 to 24 weeks, pilot study n=3
Experimental: (§4) SP600125, an anthrapyrazolone inhibitor of JNK, and PD98059, a 2′-amino-3′-methoxyflavone MAPK/ERK kinase (MEK) ½ inhibitor, (Calbiochem) were dissolved in dimethyl sulfoxide (DMSO) (Sigma) at a concentration of 1 mg/ml and were delivered to a dose of 3 mg/kg/day for 5 days a week. The placebo control consisted of DMSO alone and was delivered in the same volume. Placebo and inhibitors were administered by intraperitoneal injection using a 27⅝-gauge syringe. Treatments were started when mice were 16 weeks of age and continued until 20 weeks of age or when the mice were 19 weeks and continued until 24 weeks of age.
(§5) At 20 weeks or 24 weeks of age, mice were anesthetized with 1.5% isoflurane in O2 and placed on a heating pad (37° C.). Cardiac function was assessed by echocardiography with a Visualsonics Vevo 770 ultrasound with a 30 MHz transducer applied to the chest wall. Cardiac ventricular dimensions and fractional shortening (FS) were measured in 2D mode and M-mode three times in a modified short axis view for the number of animals indicated. A “blinded” echocardiographer (J.S.), unaware of the genotype or treatment, performed the examinations.
In a pilot study, we assessed treatment of Lmna^H222P/H222P mice with PD98059 and SP600125 at a more advanced stage of disease and for a longer time. […]

[4] = test system: JNK; experiment: Immunoblot of phosphorylated JNK versus total JNK in hearts of treated mice; settings: for phosphorylation of JNK / JNK signaling in heart: treated 8 to 16 weeks of age, 3 mg/kg/day i.p.
Experimental: as §2, §3

[5] = test system: Lmna^H222P/H222P mice; experiment: Transthoracic echocardiography at 20 weeks of age, PD98059 or SP600125 from 16 to 20 weeks; settings: for LVESD compared to DMSO-treated mice: 3 mg/kg/day; for FS and EF: after 4 weeks of treatment; for HR: heart rate; for further deterioration in cardiac function: treated from 16 to 20 weeks of age
Experimental: Using the methods described in Example 2, we treated Lmna^H222P/H222P mice with PD98059 alone or SP600125 alone, starting at 16 weeks of age, when ejection fraction has already deteriorated and left ventricular end diastolic diameter is increased, until 20 weeks of age.
as §4, §5, §1

[6] = test system: hearts from Lmna^H222P/H222P mice; experiment: Quantification of myocardial fibrotic area (Gomori's trichrome); settings: 20 weeks of age; 3 mg/kg/day from 16 to 20 weeks; DMSO 15.01±0.9%
Description: Later-stage cardiomyopathy caused by LMNA mutations is characterized by myocardial fibrosis. […] We quantified the myocardial fibrotic area of each animal by determining the ratio of fibrotic tissue (blue stained with Gomori's trichrome) to the total tissue area in each micrograph (FIG. 8B). Hearts from DMSO-treated Lmna^H222P/H222P mice had 20.93%±2.45% fibrotic tissue per total surface examined (FIG. 8B).
Mice were sacrificed at 20 weeks of age, and freshly removed hearts were fixed in 4% formaldehyde for 48 hours, embedded in paraffin, sectioned at 5 μm and stained with hematoxylin, eosin and Gomori's trichrome and Syrius Red. Representative stained sections were photographed using a Microphot SA (Nikon) light microscope attached to a Spot RT Slide camera (Diagnostic Instruments) with a 10× objective. Images were processed using Adobe Photoshop CS (Adobe Systems).
Later-stage cardiomyopathy caused by LMNA mutations is characterized by myocardial fibrosis (21,22). […] We quantified the myocardial fibrotic area of each animal by determining the ratio of fibrotic tissue (blue stained with Gomori's trichrome) to the total tissue area in each micrograph (FIG. 34C). Hearts from DMSO-treated Lmna^H222P/H222P mice had 15.01±0.9% fibrotic tissue per total surface examined (FIG. 34D).

[7] = 3 mg/kg/day from 16 to 20 weeks of age
[8] = treated 8 to 16 weeks of age, 3 mg/kg/day i.p.
[9] = pilot study, 24 week-old mice treated from 19 weeks
[10] = 20 weeks of age, 3 mg/kg/day i.p. from 16 to 20 weeks
[11] = 20 weeks of age, 3 mg/kg/day i.p. from 16 to 20 weeks, means ± SEM
[12] = Lmna^H222P/H222P mice at 20 weeks of age, treated from 16 to 20 weeks, means ± SEM
[13] = Lmna^H222P/H222P mice at 20 weeks of age, treated from 16 to 20 weeks, means ± standard deviations
[14] = Lmna^H222P/H222P mice at 20 weeks of age, treated from 16 to 20 weeks

Structure (SMILES): O=C1c2ccccc2-c2n[nH]c3cccc1c23 [SP600125, anthra[1,9-cd]pyrazol-6(2H)-one]
- mice that died prior to reaching 20 weeks of age [1]: 3
- phosphorylation of ERK1/2 in hearts [2, 7]: not significantly inhibited
- phosphorylation of ERK1/2 in hearts [2, 8]: did not block
- LV dilatation and FS compared to DMSO-treated mice [3]: trend toward decreased LV dilatation and increased FS
- phosphorylation of JNK in hearts [4, 7]: partially blocked
- phosphorylation of JNK in hearts [4, 9]: partially blocked
- phosphorylation of JNK / JNK signaling in heart [4]: blocked
- LVEDD compared to DMSO-treated mice [5, 10]: not significantly different
- LVESD compared to DMSO-treated mice [5, 10]: significantly smaller; also recorded: statistically significant reduction
- EF [5, 11]: 61.88%±1.66%
- FS and EF ([5]; 20 weeks of age): increased
- EF [5, 12]: 61.88 ± 1.66 %
- FS [5, 12]: 33.11 ± 1.16 %
- LVEDD [5, 12]: 3.73 ± 0.08 mm
- LVESD [5, 12]: 2.67 ± 0.10 mm
- EF [5, 13]: 61.88 ± 8.46 %
- FS [5, 13]: 33.11 ± 5.92 %
- IVSD [5, 13]: 0.63 ± 0.07 mm
- LVEDD [5, 13]: 3.73 ± 0.42 mm
- LVESD [5, 13]: 2.67 ± 0.49 mm
- LVPW [5, 13]: 0.66 ± 0.09 mm
- HR [5, 14]: 363 beats per minute
- further deterioration in cardiac function [5]: prevented further deterioration
- area of fibrotic tissue per total surface examined [6]: 5.86%±0.4%

Structure (SMILES): COc1cccc(-c2cc(=O)c3ccccc3o2)c1N [PD98059, 2-(2-amino-3-methoxyphenyl)-4H-1-benzopyran-4-one]
- mice that died prior to reaching 20 weeks of age [1]: 3
- phosphorylation of ERK1/2 in hearts [2, 7]: partially blocked
- phosphorylation of ERK1/2 in hearts [2, 9]: partially blocked
- phosphorylation of ERK1/2 in hearts [2, 8]: inhibited
- LV dilatation and FS compared to DMSO-treated mice [3]: decreased LV dilatation and increased FS
- phosphorylation of JNK in hearts [4, 7]: not significantly inhibited
- phosphorylation of JNK / JNK signaling in heart [4]: did not observe inhibition
- LVEDD compared to DMSO-treated mice [5, 10]: not significantly different
- increase of EF compared to the DMSO-treated group [5, 10]: approximately 22%
- LVESD compared to DMSO-treated mice [5, 10]: significantly smaller; also recorded: statistically significant reduction
- EF [5, 11]: 65.46%±2.64%
- FS and EF ([5]; 20 weeks of age): increased
- EF [5, 12]: 65.46 ± 2.64 %
- FS [5, 12]: 35.91 ± 1.88 %
- LVEDD [5, 12]: 3.55 ± 0.11 mm
- LVESD [5, 12]: 2.41 ± 0.11 mm
- EF [5, 13]: 65.46 ± 11.49 %
- FS [5, 13]: 35.91 ± 8.21 %
- IVSD [5, 13]: 0.66 ± 0.05 mm
- LVEDD [5, 13]: 3.55 ± 0.50 mm
- LVESD [5, 13]: 2.41 ± 0.50 mm
- LVPW [5, 13]: 0.69 ± 0.08 mm
- HR [5, 14]: 350 beats per minute
- further deterioration in cardiac function [5]: prevented further deterioration
- area of fibrotic tissue per total surface examined [6]: 4.48%±1%

From patent US20110110916A1, “METHODS FOR TREATING AND/OR PREVENTING CARDIOMYOPATHIES BY ERK OR JNK INHIBITION” (priority 2008, published 2011)
